# Measurements from patent publication US6340703B1, “Treatment or prevention of osteoporosis” (Novogen, Inc., priority 1997, dated 2002).
# What was measured:
# post-menopausal women [1] = assay: Greene Score for menopausal symptoms, 3 month study (Example 4); type: in vivo, human; settings: 15 mg or 60 mg daily for 3 months, compared to placebo control group
# Method: A group of 36 post-menopausal women experiencing menopausal symptoms were treated with a composition containing either 15 mg daidzein or 60 mg daidzein administered on a daily basis for 3 months.
# estrogen receptors = settings: relative to 17p-estradiol 100; cited from earlier work
# bone resorption = settings: Tobe et al 1997; cited from earlier work
# post-menopausal women [2] = assay: six month double-blind placebo-controlled study of bone density and bone resorption markers (Example 7); type: in vivo, human; settings: 25 mg, 50 mg or 75 mg daily, six months, with 1200 mg calcium per day
# Method: The second study (double-blind, placebo-controlled) involved a six month study of the effects of phytoestrogen formononetin on bone resorption markers in twenty post-menopausal women. The aim of the study was to evaluate the efficacy of a defined daily quantity of isoflavone at 25 mg, 50 mg or 75 mg on bone resorption makers in post menopausal women and compare these to normal controls The effects of isoflavones on endometrial thickness, circulatory lipids and coagulation factors were also evaluated. Subjects were also given supplemental calcium in a dose of 1200 mg per day.
# [3] = pharmacokinetic study of formononetin following oral administration; type: in vivo; settings: blood; human, oral 9.3 mg formononetin; read-out: half life in the blood stream (converted)
# Method: A pharmacokinetic study involving 16 human patients aged between 18 and 40 was conducted, to determine the pharmacokinetics of formononetin following oral administration. Each patient was orally administered 9.3 mg of formononetin with 200 ml of purified water and maintained a low isoflavone diet for one week prior to, and during the study. Blood samples were taken at 0, 0.25, 0.5, 0.75, 1.0, 1.5, 2.0, 2.5, 3, 4, 5, 6, 8, 10 and 12 and 24 hours post administration, and analysed for formononetin concentration.
# post-menopausal women [4] = assay: Greene Score for menopausal symptoms, 60 mg formononetin (Example 6); type: in vivo, human; settings: 60 mg daily for three months, relative to a control group
# Method: 15 post-menopausal women who are experiencing menopausal systems are each administered 60 mg formononetin daily for three months.
# post-menopausal women [5] = assay: bone density and bone turnover markers in high risk group for osteoporosis (Example 6); type: in vivo, human; settings: 60 mg daily for three months, preliminary results
# Method: A similar study involving 10 post-menopausal women in a high risk group for osteoporosis were also administered 60 mg formononetin daily for three months.
# endometrial cancer cells = settings: Markiewicz et al 1993; potentiated cancer cell growth; cited from earlier work
structure (smiles),measurement,setting,value
"O=c1c(-c2ccc(O)cc2)coc2cc(O)ccc12 [daidzein, 7,4-dihydroxy isoflavone]",Greene Score for menopausal symptoms,post-menopausal women [1],significant decrease
same,relative estrogenicity,estrogen receptors,0.09
same,effect on bone resorption,bone resorption,stimulates bone resorption
"COc1ccc(-c2coc3cc(O)cc(O)c3c2=O)cc1 [biochanin, reference compound]",relative estrogenicity,estrogen receptors,0.07
COc1ccc(-c2coc3cc(O)ccc3c2=O)cc1 [formononetin],Greene Score for menopausal symptoms,post-menopausal women [1],significant decrease
same,bone density at three sites of the forearm,post-menopausal women [2],significant improvement in bone density
same,relative estrogenicity,estrogen receptors,0.01
same,half-life,[3],~20 h
same,Greene Score for menopausal symptoms,post-menopausal women [4],significant decrease
same,protection against osteoporosis by bone density and bone turnover markers,post-menopausal women [5],protection against osteoporosis
O=c1c(-c2ccc(O)cc2)coc2cc(O)cc(O)c12 [genistein],estrogen effect on endometrial cancer cells,endometrial cancer cells,exhibited an estrogen effect on endometrial cancer cells
